Laboratory results taken from PubChem BioAssay (NCI).
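Tested at 5 concentrations; 48 h exposure; 96-well plates; endpoints linearly interpolated, else capped at highest concentration. The concentration for full growth arrest is given as TGI.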

What was measured:
Assay in all cases: NCI anticancer screen, dose series, 48 h
SW-620 colon = system: SW-620 colon
MDA-MB-435 = system: MDA-MB-435
HCT-116 colon = system: HCT-116 colon
SF-295 CNS = system: SF-295 CNS
UACC-62 melanoma = system: UACC-62 melanoma
HT29 colon = system: HT29 colon
EKVX NSCLC = system: EKVX NSCLC
RXF 393 renal = system: RXF 393 renal
786-0 renal = system: 786-0 renal
MDA-N = system: MDA-N
SF-268 CNS = system: SF-268 CNS
KM12 colon = system: KM12 colon
HOP-62 NSCLC = system: HOP-62 NSCLC
HOP-92 NSCLC = system: HOP-92 NSCLC
MCF7 breast = system: MCF7 breast
M14 melanoma = system: M14 melanoma
UACC-257 melanoma = system: UACC-257 melanoma
OVCAR-3 ovarian = system: OVCAR-3 ovarian
A549 NSCLC = system: A549 NSCLC
SK-MEL-28 melanoma = system: SK-MEL-28 melanoma
BT-549 breast = system: BT-549 breast
SK-MEL-2 melanoma = system: SK-MEL-2 melanoma
ACHN renal = system: ACHN renal
MOLT-4 leukemia = system: MOLT-4 leukemia
NCI-H23 lung = system: NCI-H23 lung
TK-10 renal = system: TK-10 renal
OVCAR-8 ovarian = system: OVCAR-8 ovarian
HCC-2998 colon = system: HCC-2998 colon
SN12C renal = system: SN12C renal
SK-OV-3 ovarian = system: SK-OV-3 ovarian
SR leukemia = system: SR leukemia
OVCAR-5 ovarian = system: OVCAR-5 ovarian
U251 CNS = system: U251 CNS
COLO 205 colon = system: COLO 205 colon
UO-31 renal = system: UO-31 renal
NCI-H522 lung = system: NCI-H522 lung
SNB-75 CNS = system: SNB-75 CNS
SK-MEL-5 melanoma = system: SK-MEL-5 melanoma
MDA-MB-231 breast = system: MDA-MB-231 breast
IGROV1 ovarian = system: IGROV1 ovarian
DU-145 prostate = system: DU-145 prostate
PC-3 prostate = system: PC-3 prostate
SNB-19 CNS = system: SNB-19 CNS
LOX IMVI melanoma = system: LOX IMVI melanoma
HCT-15 colon = system: HCT-15 colon
SF-539 CNS = system: SF-539 CNS
NCI/ADR-RES ovarian = system: NCI/ADR-RES ovarian
K-562 leukemia = system: K-562 leukemia
CCRF-CEM leukemia = system: CCRF-CEM leukemia
RPMI-8226 leukemia = system: RPMI-8226 leukemia

Measured: TGI

Cc1ccc(-n2c(C)n[nH]c2=O)cc1
> 100 µM: all assays above
